In paper PMC6270778, “Novel Cinnamic Acid Derivatives as Antioxidant and Anticancer Agents: Design, Synthesis and Modeling Studies” (Molecules, 2014):
Marks after values point to notes of the source that are not given here.

Columns and labels:
MRC-5 normal cells = experiment: SRB cytotoxicity assay, MRC-5 normal cells; format: cell-based; settings: Homo sapiens, MRC5, 50% growth inhibition, 48 h exposure
Procedure: Thus, we conducted in vitro studies in two colon cancer cell lines (HT-29 and HCT-15) reported time and dose-dependent stimulation of cell proliferation by LTB4 and 12-HETE [46]. The synthesized acids have been tested in five different human tumour cell lines: HT-29 (colon), A-549 (lung), OAW-42 (ovarian), MDA-MB-231 (breast), HeLa (immortal cells from cervical cancer) and MRC-5 normal cells.
Cell passages were carried out by detaching adherent, logarithmically growing cells after addition of 2–3 mL of a mixture of 0.05% solution of trypsin (Gibco, 1:250) in phosphate-buffered saline (PBS) with 0.02% EDTA and incubation for 3–5 min at 37 °C. For the experiments, cells were plated (100 μL containing 10,000 cells/well) in 96-well flat-bottom microplates microplates (Costar-Corning, Acton, MA 01720, USA) so that untreated cells were in exponential growth phase at the time of cytotoxicity evaluation. Cells were left for 24 h at 37 °C to resume exponential growth and stabilization and afterwards exposed to tested agents for 48 h by the addition of an equal volume (100 μL) of either complete culture medium (control wells), or twice the final drug concentrations diluted in complete culture medium (test wells). Drug cytotoxicity was measured by means of the SRB colorimetric assay estimating the survival fractions (SF) as the percent of control (untreated cells) absorbance. The SRB assay was carried out as previously described and modified by our group. In brief, culture medium was aspirated prior to fixation using a microplate-multiwash device (Tri-Continent Scientific, Inc., Grass Valley, CA, USA) and 50 μL of 10% cold (4 °C) trichloroacetic acid (TCA) were gently added to the wells. Microplates were left for 30 min at 4 °C, washed five times with deionized water and left to dry at room temperature for at least 24 h. Subsequently, 70 μL of 0.4% (w/v) sulforhodamine B (Sigma) in 1% acetic acid solution were added to each well and left at room temperature for 20 min. SRB was removed and the plates were washed five times with 1% acetic acid before air drying. Bound SRB was solubilized with 200 μL of 10 mM unbuffered Tris-base solution and plates were left on a plate shaker for at least 10 min. Absorbance was read in a 96-well plate reader at 492 nm subtracting the background measurement at 620 nm. The test optical density (OD) value was defined as the absorbance of each individual well, minus the blank value (“blank” is the mean optical density of the background control wells, n = 8). Mean values and the coefficient of variation (CV) from six replicate wells were calculated automatically. Results were expressed as the “survival fraction” (SF), as shown below.
For each tested compound a dose-effect curve was produced. Sextuplicate determinations gave a CV (Standard Deviation/mean %) of much less than 10%, resulting in standard error (SE) which was very low in all cases. The data showing inhibition of cellular growth are expressed as the fraction of cells that remains unaffected (fu) (survival fraction, SF), which is derived from the following equation: fu = ODx/ODc where ODx and ODc represent the test and the control optical density, respectively.

[1] = Determination of RM values by reversed phase TLC (RPTLC); format: physicochemical; settings: CH3OH:H2O:CH3COOH (77:23:0.1), average of at least 10 measurements
Procedure: Lipophilicity represents a significant physicochemical property for the absorption, distribution, metabolism and excretion of drugs (ADME properties). In this study the experimentally lipophilicity as RM values is measured by the reverse-phase thin layer chromatography (RPTLC), a reliable, fast and convenient method. The obtained values were compared with the corresponding log P values in n-octanol-buffer estimated by ClogP [33, 34]. It is well known that lipophilicity plays an important role at the ADME properties. In the present study additionally, it influences the radical scavenging property (i.e., in an aqueous phase) or the chain-breaking antioxidant activity (i.e., in biological membranes).
Reversed phase TLC (RPTLC) was studied using silica gel plates saturated with 55% (v/v) liquid paraffin in light petroleum ether and methanol/water mixture (77/23, v/v) containing 0.1% of acetic acid was used as a mobile phase. Spots were detected under UV light or by iodine vapours. RM values were determined by the corresponding Rf values (from ten individual measurements) using the equation RM = log [(1/Rf) − 1] [23, 24, 25].

In the case of `N#Cc1ccc(C=C(C(=O)O)c2ccccc2)cc1` [Compound 1i, 3-(4-Cyanophenyl)-2-phenylacrylic acid], the IC50 (MRC-5 normal cells) is reported as 222 ± 1.3 µM and the “RM (±SD)” value [1] is reported as −0.895 (0.004) ^e.

For `N#Cc1ccc(C=CC(=O)O)cc1` [Compound 1ii, 3-(4-Cyanophenyl)acrylic acid], the IC50 (MRC-5 normal cells) was > 240 µM and the “RM (±SD)” value [1] was −0.972 (0.032) ^e.

For `O=C(O)C(=CC=Cc1ccc([N+](=O)[O-])cc1)c1ccccc1` [Compound 2i, 5-(4-Nitrophenyl)-2-phenylpenta-2,4-dienoic acid], the IC50 (MRC-5 normal cells) was 96.3 ± 1.1 µM and the “RM (±SD)” value [1] was −0.706 (0.062) ^e.

For `O=C(O)C=CC=Cc1ccc([N+](=O)[O-])cc1` [Compound 2ii, 5-(4-Nitrophenyl)penta-2,4-dienoic acid], the IC50 (MRC-5 normal cells) was 240 ± 1 µM and the “RM (±SD)” value [1] was −0.868 (0.019) ^e.

For `O=C(O)C(=CC=Cc1ccccc1)c1ccccc1` [Compound 3i, 2,5-Diphenylpenta-2,4-dienoic acid], the IC50 (MRC-5 normal cells) was > 240 µM and the “RM (±SD)” value [1] was 0.987 (0.018) ^e.

In the case of `O=C(O)C=CC=Cc1ccccc1` [Compound 3ii, 5-Phenylpenta-2,4-dienoic acid], the IC50 (MRC-5 normal cells) is reported as 240 ± 1.8 µM and the “RM (±SD)” value [1] is reported as −0.893 (0.002) ^e.

With `O=C(O)C(=CC(Br)=Cc1ccccc1)c1ccccc1` [Compound 4i, 4-Bromo-2,5-diphenylpenta-2,4-dienoic acid] the IC50 (MRC-5 normal cells) was 92 ± 1.3 µM and the “RM (±SD)” value [1] was 0.566 (0.001) ^e.

For `O=C(O)C=CC(Br)=Cc1ccccc1` [Compound 4ii, 4-Bromo-5-phenylpenta-2,4-dienoic acid], the IC50 (MRC-5 normal cells) was 24 ± 0.6 µM and the “RM (±SD)” value [1] was −0.847 (0.044) ^e.
